Data on two compounds can be found in US6808873B2, “Screening assays using intramitochondrial calcium” (MitoKor, Inc., priority 2000, dated 2004).

The target in experiment [1] is T1, Ca^2+ uniporter (Homo sapiens, UniProt Q8NE86).
T1 construct: The effects of several intracellular Ca^2+ modulating agents (ICMAs) on permeabilized HepG2 cells were examined; endogenous in cells; host or cells: HepG2 (ATCC HB-8065), digitonin-permeabilized, in suspension
T1 sequence (Q8NE86 51-351): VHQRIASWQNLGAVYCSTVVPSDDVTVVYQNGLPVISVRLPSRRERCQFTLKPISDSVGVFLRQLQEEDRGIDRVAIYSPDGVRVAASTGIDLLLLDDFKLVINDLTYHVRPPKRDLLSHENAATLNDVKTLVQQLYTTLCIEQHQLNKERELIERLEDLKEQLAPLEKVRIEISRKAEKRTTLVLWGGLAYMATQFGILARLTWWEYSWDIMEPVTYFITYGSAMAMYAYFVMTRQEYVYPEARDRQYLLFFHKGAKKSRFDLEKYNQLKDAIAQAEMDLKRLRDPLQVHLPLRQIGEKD
T1 sequence (Q9H4I9 48-107 partner limits assumed): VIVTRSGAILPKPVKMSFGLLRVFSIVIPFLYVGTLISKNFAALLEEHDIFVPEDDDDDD
Briefly: Ca^2+ uniporter assay, digitonin-permeabilized suspended HepG2 cells, Calcium-Green-5N on FLIPR, ICMA added between two Ca^2+ pulses. The format is cell-based. As to conditions: 5 micrograms/milliliter oligomycin, 2 micromolar rotenone, 1 micromolar FCCP; for release of sequestered Ca^2+ from mitochondria after addition of the agent: added about 3 min after first 12 micromolar Ca^2+ pulse, thapsigargin present; for mitochondrial uptake of the second Ca^2+ pulse: second Ca^2+ pulse at about t=6 min, 1 micromolar RU360.
Procedure: A master mix solution (MM Solution) was prepared by the addition of glutamate and malate to final concentrations of 5 millimolar each, MgCl2 to a final concentration of 1 millimolar, EGTA to a final concentrations of 0 to 8 micromolar, and Calcium-Green-5N to a final concentration of 0.1 to 1.0 micromolar, to a basic KCl-based respiratory media (“BReM”) that is described in Table 3. […] The hexapotassiun salt Calcium-Green-5N (Molecular Probes, Eugene, Oreg.) in the MM Solution is a fluorescent dye that has low binding affinity to Ca^2+.
Thapsigargin (Calbiochem, San Diego, Calif.), a Ca^2+ uptake inhibitor of the endoplasmic reticulum (ER), was added to the MM Solution to a final concentration of 1 micromolar to yield a solution designated “MM-T” (i.e., Master Mix with Thapsigargin).
The cell membrane permeabilizing agent digitonin (Sigma, St. Louis, Mo.) was added to MM-T to a final concentration of from about 0.007% to about 0.03% to yield a solution referred to as “MM-TD” (i.e., Master Mix with Thapsigargin and digitonin. CaCl2 was added to MM-T to provide a solution with a determined final concentration of Ca^2+ for the determination of intracellular Ca^2+ flux.
The effects of several intracellular Ca^2+ modulating agents (ICMAs) on permeabilized HepG2 cells were examined as follows. The mitochondrial respiratory inhibitors oligomycin (Calbiochem, San Diego, Calif.) and rotenone (Calbiochem) were added to MM-T to final concentrations of 50 micrograms/milliliter and 20 micromolar, respectively. The uncoupler FCCP was similarly added to MM-T to a 10× concentration (10 micromolar) to yield a stock solution of FCCP, MM-TF (i.e., Master Mix with Thapsigargin and FCCP). The ICMA Ru360, which blocks Ca^2+ uptake into the mitochondria by the calcium uniporter, was added to MM-T to a concentration of 100 micromolar to yield MM-T360 (i.e., Master Mix with Thapsigragin and Ru360). CaCl2 was added to MM-T to yield a 10× solution of CaCl2 (120 micromolar) in MM-T.
HepG2 cells were cultured in Eagle's minimal essential medium (MEM) with non-essential amino acids, sodium pyruvate and Earle's balanced salt solution (BSS), 90%; fetal bovine serum (FBS), 10%. Cells were centrifuged (500×g) and the growth media was aspirated from the pellet. The HepG2 cells were resuspended in MM-TD at a concentration of 1×10^7 cells/milliliter, and 100 microliters of the resuspended permeabilized cells were dispensed into wells of a 96-well Costar 3603 microplate. The plate was placed into a FLIPR™ prewarmed to 37° C. MM-T, 120 micromolar Ca^2+, was dispensed into the cell-containing wells at a volume of 11.1 microliters, yielding a final assay concentration of 12 micromolar Ca^2+. The addition of Ca^2+ at this stage of the assay is referred to as the first calcium pulse and the time at which Ca^2+ is added is designated t=0.
After about three minutes (i.e., at about t=3 min.), 12.3 microliters of one of the ICMA solutions were dispensed into wells containing permeabilized cells to yield final assay concentrations of 5 micrograms/milliliter oligomycin, 2 micromolar rotenone, 1 micromolar FCCP, 1 micromolar RU360, and MM-T (no ICMA).
Cells were exposed to a second calcium pulse by the addition of 13.7 microliters of MM-T, 120 micromolar Ca^2+, to the cells after an additional 3 minutes (i.e., at about t=6 min.).

A further experiment deals with calcium uniporter (CaUP). Briefly: Calcium uniporter (CaUP) functional assay, suspended permeabilized L6 cells, FLIPR. The class given is cell-based, rat. Particulars: 5 microgram/milliliter oligomycin and 2 micromolar rotenone together, 16 micromolar Ca^2+; FIG. 9. The procedure: A series of functional assays were performed on non-adherent cell lines in order to optimize the mitochondria Ca—UP assay on FLIPR using Calcium-Green-5N and digitonin permeabilized cells. A dose response of Ca^2+ pulses with and without the addition of mitochondria oxidative respiration uncouplers were performed utilizing cells from […]. MM with thapsigarin, MM-T, and digitonin, MM-TD, are prepared as previously described. Ten times (10×) Ca^2+ media is prepared by adding CaCl2 (160 micromolar) to MM-T. The L6 cells were suspended in the cell permeabilizing respiratory media MM-TD at a concentration of 1×10^7 cells per milliliter. […] Emissions resulting from [Ca^2+:Calcium-Green-5N] complexes were monitored at the appropriate wavelength so as to follow changes in intracellular Ca^2+ levels throughout the assay.
Functional assays of the calcium uniporter (CaUP) were similarly performed on non-adherent L6 cells, as described above, with respiratory inhibitors oligomycin and rotenone in order to observe the effects of elimination of the membrane potential using this high throughput FLIPR. […] The emission wavelength was monitored and intracellular Ca^2+ levels observed throughout assay. […] When media with no Ca^2+ is added, the fluorescence changes only minimally (rows 3 and 4)] […]

Experiment [2] deals with Ca^2+ uniporter. Briefly: Ca^2+ uniporter assay, adherent permeabilized MixCon cells, Calcium-Green-5N on FLIPR, with respiratory inhibitors. The class given is cell-based. Particulars: 10 micromolar Ca^2+; for Ca^2+-5N fluorescence after the second Ca^2+ pulse, presence of succinate: oligomycin 5 micrograms/milliliter and rotenone 2 micromolar together (MM-GMS-TD-OR), 5 millimolar succinate; for Ca^2+-5N fluorescence after the second Ca^2+ pulse, presence of succinate / Ca^2+-5N fluorescence after the second Ca^2+ pulse, absence of succinate: FIG. 8; for signal corresponding to extramitochondrial calcium after each Ca^2+ pulse: oligomycin 5 micrograms/milliliter or rotenone 2 micromolar, three pulses, FIG. 7; for Ca^2+-5N fluorescence after the second Ca^2+ pulse, absence of succinate: oligomycin 5 micrograms/milliliter, rotenone 2 micromolar, glutamate/malate medium. The procedure: Mitochondrial inhibitors of oxidative phosphorylation, oligomycin and rotenone, were used to observe the effect of decreased membrane potential of mitochondria on cytosol Ca^2+ levels in the adherent cell line MixCon. The adherent MixCon cells in Dulbecco's modified Eagle's medium and 10% FBS growth media were dispensed into wells of a 96-well microtiter plate at a concentration of about 6×10^4 cells in 100 microliters per well 48 hours prior to assay. Just prior to their use the growth media was aspirated from the wells. Ninety (90) microliters of MM-TD with oligomycin (5 micrograms/milliliter) or rotenone (2 micromolar), or MM-TD without either inhibitor, were added to the cells. The plate was placed in a FLIPR™ system, and three doses of the 10× stock (100 micromolar) solution of calcium were dispensed into the different wells at approximately 2 minute intervals with increasing volumes (10, 11.1, and 12.3 microliters respectively), resulting in a constant concentration of 10 micomolar Ca^2+ throughout the course of the assay. Emissions at the 531 nm wavelength were monitored by a FLIPR™ as a measure of extramitochondrial Ca^2+-Green-5N fluorescence. The signal corresponding to extramitochondrial calcium increased after each pulse and, in samples when remained high when in the presence of the two inhibitors. Alternatively, Ca^2+ is sequestered in mitochondria of cells not exposed to inhibitors (FIG. 7).
Another assay was performed to examine the effect by the respiratory inhibitors oligomycin and rotenone and subsequent release of Ca^2+ from mitochondria in the presence or absence of succinate in MixCon cells. Two different master mixes (MM and MM-GMS) were prepared with MM prepared as previously described. MM-GMS was prepared by the addition of glutamate, malate and succinate to final concentrations of 5 millimolar each, MgCl2 to a final concentration of 1 millimolar, EGTA to a final concentration of 10 micromolar, and Calcium-Green-5N to a final concentration of 0.1 micromolar, to a basic KCl-based respiratory media (BReM, Table 3). Thapsigargin was added to the MM and MM-GMS to a final concentration of 1 micromolar to yield MM-T and MM-GMS-T (where “T” indicates Thapsigargin and “GMS” indicates glutamate, malate and succinate. The cell permeabilizing agent digitonin was added to MM-T and MM-GMS-T to a final concentration of 0.03% to yield solutions designated as MM-TD and MM-GMS-TD. As indicated in some instances, the mitochondrial inhibitors oligomycin and rotenone (Calbiochem) were each added to solutions of MM-TD and MM-GMS-TD to final concentrations of 5 micrograms/milliliter and 2 micromolar, respectively.
CaCl2 was added to MM-T and MM-GMS-T to a concentration of 50 micromolar Ca^2+ to yield 5× Ca^2+ solutions in MM-T and MM-GMS-T, respectively. Versions of the 5× Ca^2+ stock solutions comprising respiratory inhibitors were also prepared (oligomycin, final concentration of 50 micrograms/milliliter; rotenone, 20 micromolar).
The MixCon cells, in Dulbecco's modified Eagle's medium and 10% FBS growth media, were dispensed into wells of a 96-well Costar 3603 microtiter plate at a concentration of 6×10^4 cells in one hundred microliters per well, 48 hours prior to the assay. Just prior to their use the growth media was aspirated from the wells. Eighty (80) microliters of MM-TD, MM-GMS-TD, MM-TD-O, MM-TD-R, and MM-GMS-TD-OR (where “O” oligomycin and “R” signifies rotenone) were dispensed into wells containing the cells. The microtiter plate was placed in a FLIPR™ preheated to 37° C. and an initial injection of 20 microliters of the 5× stock solutions (50 micromolar) of Ca^2+, with olygomycin, rotenone or no additions, were dispensed into the appropriate wells such that the Ca^2+ concentration in the assay is 10 micromolar and wells with the inhibitors remain at constant assay concentrations.
A second pulse of 25 microliters of the 5× solution was supplied after approximately 5 minutes. […]

For experiment [3], the target named is T1, Ca^2+ uniporter. Briefly: High-throughput uniporter assay of different compounds, permeabilized HepG2 cells with and without thapsigargin, FLIPR II. The class given is cell-based. As to conditions: test compounds 1 micromolar.
Source text: The high-throughput uniporter assay protocol, carried out as described above for suspension cells, was used to determine the effect of different compounds on mitochondria and extramitochondrial Ca^2+ concentrations in the presence or absence of the Ca^2+ uptake inhibitor of the endoplasmic reticulum, thapsigargin (Calbiochem). Agents examined in this assay include calcium channel inhibitors, pro- and anti-oxidants, mitochondrial inhibitors and uncouplers, and the Ca—UP inhibitor Ru360. On the day of the assay, solutions of the respiratory/cell permeabilizing media containing digitonin with thapsigarin (MM-TD) and without thapsigarin (MM-D) were prepared as previously described. Calcium chloride was added to each to a final concentration of 6 micromolar Ca^2+, resulting in MM-TD, 6 uM Ca and MM-D, 6 uM Ca. A MM solution was prepared with a 10× Ca^2+ concentration of 200 micromolar for the second Ca^2+ pulse. The Ca^2+-uniporter inhibitor Ru360 was prepared at a 10× concentration of 100 microliters in MM. Ten times (10×) stock solutions of the other agents were prepared for the assay by the addition of the compounds to final concentrations of 10 micromolar into MM. […] Controls include water and 10% DMSO (Sigma) in MM.
Cells of the HepG2 cell line (hepatocellular carcinoma, ATCC HB-8065) were trypsinized from near-confluent flasks in growth media (Eagle's MEM with non-essential amino acids, sodium pyruvate and Earle's BSS, 90%; FBS 10%). Cells were centrifuged, growth media was aspirated, and cells were resuspended to a concentration of 1×10^7 cells per milliliter in MM-TD, 6 uM Ca, or MM-D, 6 uM Ca. One hundred (100) microliters of the cell suspension (about 1×10^6 cells) were delivered to wells of a microtiter plate. The plate was placed in a FLIPR™ II (used in 96-well format) warmed to 37° C. An 11.1 microliter aliquot of the 10× stock solutions with water or DMSO (controls), Ru360 (Ca—UP inhibitor), or the test compounds, were dispensed into designated wells such that the assay concentration of DMSO is 0.1%, Ru360 is 10 micromolar, and each of the test compounds are at 1 micromolar concentrations. After an additional three minutes, a second addition of 12.3 microliters of the 10× CaCl2 (200 micromolar Ca^2+), was dispensed into the wells of the microtiter plate resulting in assay concentrations of 20 micromolar Ca^2 (Extramitochondrial Ca^2+ bound to the calcium indicator dye was monitored throughout and profiles of each assay; the results are presented in FIG. 12, with all thapsigargin minus (thaps−) assays in wells corresponding to columns 1-6 and thapsigargin plus (thaps+) assays in wells corresponding to columns 7-12.

Structures are written as SMILES.

Consider `CC[C@H]1/C=C/C=C/C[C@@H](C)[C@H](O)[C@@](C)(O)C(=O)[C@@H](C)[C@H](O)[C@@H](C)C(=O)[C@@H](C)[C@H](O)[C@@H](C)/C=C/C(=O)O[C@@H]2[C@H](C)[C@H](CC1)O[C@]1(CC[C@H](C)[C@H](C[C@@H](C)O)O1)[C@H]2C` [oligomycin], for which, on Ca^2+ uniporter [1], the “release of sequestered Ca^2+ from mitochondria after addition of the agent” value is listed as “caused the release of Ca^2+ from mitochondria into the cytosol” and the “mitochondrial uptake of the second Ca^2+ pulse” value was “could not sequester the added Ca^2+”. Moreover, in the experiment on calcium uniporter (CaUP), the “mitochondrial sequestration of added Ca^2+” value is listed as “Ca^2+ is not sequestered in the mitochondria”. In the experiment with Ca^2+ uniporter [2], the “Ca^2+-5N fluorescence after the second Ca^2+ pulse, presence of succinate” value is listed as “reduction of Ca^2+-5N fluorescence after the second Ca^2+ pulse”; the “signal corresponding to extramitochondrial calcium after each Ca^2+ pulse” value is on record as “remained high”; the “Ca^2+-5N fluorescence after the second Ca^2+ pulse, absence of succinate” value is “elevated levels of Ca^2+-5N fluorescence after the second Ca^2+ pulse”.

For the compound `C=C(C)[C@H]1Cc2c(ccc3c2O[C@@H]2COc4cc(OC)c(OC)cc4[C@@H]2C3=O)O1` [rotenone], at Ca^2+ uniporter [3], the “uniporter activity profile after the 20 micromolar Ca^2+ pulse” value was “Ca^2+ can no longer be sequestered by the mitochondria”. For the same compound, at Ca^2+ uniporter [1], the “release of sequestered Ca^2+ from mitochondria after addition of the agent” value is recorded as “caused the release of Ca^2+ from mitochondria into the cytosol” and the “mitochondrial uptake of the second Ca^2+ pulse” value was “could not sequester the added Ca^2+”. The “mitochondrial sequestration of added Ca^2+” value in the experiment on calcium uniporter (CaUP) is listed as “Ca^2+ is not sequestered in the mitochondria”. Moreover, in the experiment with Ca^2+ uniporter [2], the “Ca^2+-5N fluorescence after the second Ca^2+ pulse, presence of succinate” value is listed as “reduction of Ca^2+-5N fluorescence after the second Ca^2+ pulse”; the “signal corresponding to extramitochondrial calcium after each Ca^2+ pulse” value is “remained high”; the “Ca^2+-5N fluorescence after the second Ca^2+ pulse, absence of succinate” value is listed as “elevated levels of Ca^2+-5N fluorescence after the second Ca^2+ pulse”.
